Reference: the supplement of paper PMC10627819

Experiments:
[1] = system: S. aureus Newman; experiment: fitness (endpoint OD595 vs no drug) (fraction); higher = more growth; conditions: one replicate
Method in brief: (§1)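 Bacterial growth was followed in 384-well plates seeded at OD595 0.01, with 30 µl per well, or 55 µl for S. pneumoniae, in TSB, LB Lennox or CY at 37 °C. OD595 was read every 30 min for 14 h, and each reading had the first reading subtracted as background. Fitness is the background-corrected optical density at entry into stationary phase divided by the robust mean of the no-drug control wells. This ratio is capped at 1.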

[2] = system: S. pneumoniae D39V; experiment: as above
Method in brief: as §1

[3] = system: B. subtilis 168; experiment: Bliss interaction score (quartile over a dose matrix) (fitness difference); higher = more antagonism (negative = synergy)
Method in brief: (§2)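 Fitness here means normalised growth, inferred for single drugs from the combination data. Growth was OD595 at entry into stationary phase, divided by the plate's robust no-drug mean and capped at 1. The Bliss score is observed minus expected fitness, with the expectation being the product, and its quartiles span technical, biological and donor/recipient replicates.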

[4] = system: S. aureus DSM 20231; experiment: as above
Method in brief: as §2

[5] = system: S. aureus Newman; experiment: as above
Method in brief: as §2

[6] = system: S. pneumoniae D39V; experiment: as above
Method in brief: as §2

[7] = system: B. subtilis 168; experiment: fitness (endpoint OD595 vs no drug) (fraction); higher = more growth
Method in brief: as §1
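Wherever Bliss interaction score (quartile over a dose matrix) is given: first quartile when negative (synergy) and third quartile when positive (antagonism).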

CO/N=C(\C(=O)N[C@@H]1C(=O)N2C(C(=O)O)=C(COC(C)=O)CS[C@H]12)c1csc(N)n1 [Cefotaxime] + C/C(=C\C(=O)OCCCCCCCCC(=O)O)C[C@@H]1OC[C@H](C[C@@H]2O[C@H]2[C@@H](C)[C@H](C)O)[C@@H](O)[C@H]1O [Pseudomonic acid]
fitness
Conditions | first compound 0.0018 µg/mL | first compound 0.0035 µg/mL | first compound 0.007 µg/mL | first compound 0.078 µg/mL | first compound 0.156 µg/mL | first compound 0.312 µg/mL
[1], partner 0.0313 µg/mL | – | – | – | 0.054 | 0.0458 | 0.0509
[1], partner 0.0625 µg/mL | – | – | – | 0.0409 | 0.0394 | 0.0414
[1], partner 0.125 µg/mL | – | – | – | 0.0477 | 0.0707 | 0.0616
[2], partner 0.03 µg/mL | 0.978 | 0.962 | 0.962 | – | – | –
[2], partner 0.06 µg/mL | 0.833 | 0.862 | 0.809 | – | – | –
[2], partner 0.12 µg/mL | 0.551 | 0.56 | 0.517 | – | – | –

Conditions | Bliss interaction score
[3] | 0.0549
[4] | 0.0223
[5] | 0.022
[6] | 0.0643

CO/N=C(\C(=O)N[C@@H]1C(=O)N2C(C(=O)O)=C(COC(C)=O)CS[C@H]12)c1csc(N)n1 [Cefotaxime] + CO/N=C(\C(=O)N[C@@H]1C(=O)N2C(C(=O)O)=C(COC(N)=O)CS[C@H]12)c1ccco1 [Cefuroxime]
fitness, [7], one replicate
Conditions | first compound 0.00775 µg/mL | first compound 0.0155 µg/mL | first compound 0.031 µg/mL | first compound 0.0625 µg/mL | first compound 0.125 µg/mL | first compound 0.25 µg/mL | first compound 0.5 µg/mL | first compound 1 µg/mL | first compound 2 µg/mL
partner 0.04875 µg/mL | – | – | – | 0.421 | 0.41 | 0.354 | 0.0782 | 0.0681 | 0.0589
partner 0.0975 µg/mL | – | – | – | 0.492 | 0.444 | 0.451 | 0.0682 | 0.0388 | 0.0337
partner 0.195 µg/mL | 0.236 | 0.172 | 0.176 | 0.329 | 0.331 | 0.305 | 0.0838 | 0.0517 | 0.0469
partner 0.39 µg/mL | 0.194 | 0.121 | 0.138 | – | – | – | – | – | –
partner 0.78 µg/mL | 0.147 | 0.0786 | 0.0789 | – | – | – | – | – | –
partner 1.562 µg/mL | – | – | – | – | – | – | 0.308 | 0.139 | 0.161
partner 3.125 µg/mL | – | – | – | – | – | – | 0.286 | 0.1 | 0.138
partner 6.25 µg/mL | – | – | – | – | – | – | 0.261 | 0.114 | 0.0944

fitness, [1]
Conditions | first compound 0.078 µg/mL | first compound 0.156 µg/mL | first compound 0.312 µg/mL
partner 0.04875 µg/mL | 0.834 | 0.698 | 0.384
partner 0.0975 µg/mL | 0.798 | 0.574 | 0.295
partner 0.195 µg/mL | 0.84 | 0.596 | 0.237

Conditions | Bliss interaction score
[3] | 0.0852
[4] | 0.107
[5] | -0.0451
[6] | -0.0369

CO/N=C(\C(=O)N[C@@H]1C(=O)N2C(C(=O)O)=C(COC(N)=O)CS[C@H]12)c1ccco1 [Cefuroxime] + CC1=C(C(=O)O)N2C(=O)[C@@H](NC(=O)[C@H](N)c3ccccc3)[C@H]2SC1 [Cephalexin]
fitness, [7], one replicate
Conditions | first compound 0.04875 µg/mL | first compound 0.0975 µg/mL | first compound 0.195 µg/mL | first compound 1.562 µg/mL | first compound 3.125 µg/mL | first compound 6.25 µg/mL
partner 0.125 µg/mL | 0.871 | 0.73 | 0.654 | 0.31 | 0.24 | 0.218
partner 0.25 µg/mL | – | – | – | 0.236 | 0.238 | 0.197
partner 0.5 µg/mL | – | – | – | 0.24 | 0.179 | 0.109
partner 1 µg/mL | 0.545 | 0.533 | 0.354 | – | – | –

fitness
Conditions | first compound 0.04875 µg/mL | first compound 0.0975 µg/mL | first compound 0.195 µg/mL
[1], partner 0.5 µg/mL | 0.925 | 0.883 | 0.943
[1], partner 1 µg/mL | 0.99 | 0.917 | 0.941
[1], partner 2 µg/mL | ≥ 1 | 0.967 | 0.949
[7], partner 0.25 µg/mL | 0.709 | 0.683 | 0.507
[7], partner 0.5 µg/mL | 0.729 | 0.706 | 0.527

Conditions | Bliss interaction score
[3] | -0.0402
[4] | 0.0711
[5] | -0.0321
[6] | 0.0313

CO/N=C(\C(=O)N[C@@H]1C(=O)N2C(C(=O)O)=C(COC(N)=O)CS[C@H]12)c1ccco1 [Cefuroxime] + CC1=C\[C@@H](O)CC(=O)Cc2nc(co2)C(=O)N2CCC=C2C(=O)O[C@H](C(C)C)[C@H](C)/C=C/C(=O)NC\C=C\1 [Virginiamycin M1]
fitness
Conditions | partner 0.0625 µg/mL | partner 0.125 µg/mL | partner 0.25 µg/mL
[1], first compound 0.04875 µg/mL | 0.927 | 0.952 | 0.943
[1], first compound 0.0975 µg/mL | 0.963 | 0.992 | 0.965
[1], first compound 0.195 µg/mL | 0.89 | 0.944 | 0.893
[7], first compound 0.04875 µg/mL | – | 0.76 | –
[7], first compound 0.195 µg/mL | 0.558 | 0.555 | 0.538

fitness, [7], one replicate
Conditions | first compound 1.562 µg/mL | first compound 3.125 µg/mL | first compound 6.25 µg/mL
partner 0.0625 µg/mL | 0.334 | 0.259 | 0.239
partner 0.125 µg/mL | 0.325 | 0.26 | 0.208
partner 0.25 µg/mL | 0.309 | 0.217 | 0.182

Conditions | Bliss interaction score
[3] | 0.0564
[4] | 0.103
[5] | -0.0495
[6] | -0.0415

CO/N=C(\C(=O)N[C@@H]1C(=O)N2C(C(=O)O)=C(COC(N)=O)CS[C@H]12)c1ccco1 [Cefuroxime] + CC(C1CCC(C(O1)OC2C(CC(C(C2O)OC3C(C(C(CO3)(C)O)NC)O)N)N)N)NC [Gentamicin]
fitness, main component drawn
Conditions | first compound 0.04875 µg/mL | first compound 0.0975 µg/mL | first compound 0.195 µg/mL
[1], partner 1 µg/mL | 0.937 | 0.923 | 0.942
[1], partner 2 µg/mL | 0.867 | 0.723 | 0.628
[1], partner 4 µg/mL | 0.0568 | 0.0486 | 0.0654
[7], partner 0.0625 µg/mL | 0.708 | 0.675 | 0.587
[7], partner 0.125 µg/mL | – | 0.379 | 0.0507
[7], partner 0.25 µg/mL | 0.0653 | 0.0449 | 0.0518

fitness, [7], one replicate, main component drawn
Conditions | first compound 0.39 µg/mL | first compound 0.78 µg/mL | first compound 1.562 µg/mL | first compound 3.125 µg/mL | first compound 6.25 µg/mL
partner 0.0625 µg/mL | 0.6 | 0.549 | 0.249 | 0.0632 | 0.0658
partner 0.125 µg/mL | 0.202 | 0.142 | 0.0288 | 0.0271 | 0.0297
partner 0.25 µg/mL | 0.152 | 0.0935 | 0.0323 | 0.029 | 0.0215

main component drawn
Conditions | Bliss interaction score
[3] | 0.0914
[4] | -0.313
[5] | -0.165
[6] | -0.0232

CO/N=C(\C(=O)N[C@@H]1C(=O)N2C(C(=O)O)=C(COC(N)=O)CS[C@H]12)c1ccco1 [Cefuroxime] + CCN(CC)CCOC(=O)c1ccc(N)cc1 [Procaine]
fitness
Conditions | first compound 0.04875 µg/mL | first compound 0.0975 µg/mL | first compound 0.195 µg/mL
[1], partner 85.5 µg/mL | 0.953 | 0.92 | 0.904
[1], partner 171 µg/mL | 0.962 | 0.904 | 0.905
[1], partner 342 µg/mL | 0.947 | 0.907 | 0.902
[7], partner 85.5 µg/mL | 0.756 | 0.685 | 0.527
[7], partner 171 µg/mL | 0.762 | 0.65 | 0.512
[7], partner 342 µg/mL | 0.75 | – | 0.519

fitness, [7], one replicate
Conditions | first compound 1.562 µg/mL | first compound 3.125 µg/mL | first compound 6.25 µg/mL
partner 85.5 µg/mL | 0.348 | 0.28 | 0.225
partner 171 µg/mL | 0.288 | 0.256 | 0.153
partner 342 µg/mL | 0.293 | 0.233 | 0.202

Conditions | Bliss interaction score
[3] | 0.0619
[4] | 0.0947
[5] | -0.0324
[6] | -0.0452

CO/N=C(\C(=O)N[C@@H]1C(=O)N2C(C(=O)O)=C(COC(N)=O)CS[C@H]12)c1ccco1 [Cefuroxime] + CN1C2=CC=CC=C2N=C3C1=CC=CC3=O [Pyocyanin]
fitness
Conditions | first compound 0.04875 µg/mL | first compound 0.0975 µg/mL | first compound 0.195 µg/mL
[1], partner 1.25 µg/mL | 0.903 | 0.869 | 0.897
[1], partner 2.5 µg/mL | 0.84 | 0.779 | 0.864
[1], partner 5 µg/mL | 0.504 | 0.451 | 0.472
[7], partner 1.25 µg/mL | – | – | 0.53
[7], partner 2.5 µg/mL | 0.719 | – | 0.513
[7], partner 5 µg/mL | 0.59 | 0.501 | 0.463

fitness, [7], one replicate
Conditions | first compound 1.562 µg/mL | first compound 3.125 µg/mL | first compound 6.25 µg/mL
partner 1.25 µg/mL | 0.331 | 0.306 | 0.24
partner 2.5 µg/mL | 0.308 | 0.258 | 0.192
partner 5 µg/mL | 0.253 | 0.215 | 0.184

Conditions | Bliss interaction score
[3] | 0.0646
[4] | -0.0629
[5] | -0.0853
[6] | -0.0309

CO/N=C(\C(=O)N[C@@H]1C(=O)N2C(C(=O)O)=C(COC(N)=O)CS[C@H]12)c1ccco1 [Cefuroxime] + CN(C)c1cc(NC(=O)CNC(C)(C)C)c(O)c2c1C[C@H]1C[C@H]3[C@H](N(C)C)C(O)=C(C(N)=O)C(=O)[C@@]3(O)C(O)=C1C2=O [Tigecycline]
fitness
Conditions | partner 0.039 µg/mL | partner 0.078 µg/mL | partner 0.156 µg/mL
[1], first compound 0.04875 µg/mL | 0.933 | 0.907 | 0.95
[1], first compound 0.0975 µg/mL | 0.927 | 0.959 | 0.895
[1], first compound 0.195 µg/mL | 0.879 | 0.843 | 0.863
[7], first compound 0.0975 µg/mL | 0.652 | 0.677 | 0.669
[7], first compound 0.195 µg/mL | 0.553 | 0.53 | 0.537

fitness, [7], one replicate
Conditions | first compound 0.195 µg/mL | first compound 0.39 µg/mL | first compound 0.78 µg/mL | first compound 1.562 µg/mL | first compound 3.125 µg/mL | first compound 6.25 µg/mL
partner 0.039 µg/mL | – | – | – | 0.349 | 0.258 | 0.227
partner 0.078 µg/mL | – | – | – | 0.284 | 0.219 | 0.17
partner 0.125 µg/mL | 0.405 | 0.34 | 0.292 | – | – | –
partner 0.156 µg/mL | – | – | – | 0.283 | 0.235 | 0.153
partner 0.25 µg/mL | 0.368 | 0.287 | 0.211 | – | – | –
partner 0.5 µg/mL | 0.398 | 0.299 | 0.259 | – | – | –

Conditions | Bliss interaction score
[3] | 0.0459
[4] | 0.0902
[5] | -0.0442
[6] | 0.0499
